Measured values from PubChem BioAssay (NCI).
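A five-concentration, 48-hour dose response in 96-well plates underlies each endpoint, interpolated linearly between surrounding concentrations. GI50 = concentration required for 50% inhibition of growth. TGI marks complete inhibition of growth.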

What was measured:
Assay in all cases: DTP human tumour cell line panel, 48 h
[1] = system: NCI-H226 lung
[2] = system: BT-549 breast
[3] = system: HCT-15 colon
[4] = system: OVCAR-8 ovarian
[5] = system: DU-145 prostate
[6] = system: SNB-75 CNS
[7] = system: CAKI-1 renal
[8] = system: UACC-257 melanoma
[9] = system: SF-295 CNS
[10] = system: NCI-H23 lung

| Structure (SMILES) | GI50 [1] [µM] | TGI [1] [µM] | GI50 [2] [µM] | TGI [2] [µM] | GI50 [3] [µM] | TGI [3] [µM] | GI50 [4] [µM] | TGI [4] [µM] | GI50 [5] [µM] | TGI [5] [µM] | GI50 [6] [µM] | TGI [6] [µM] | GI50 [7] [µM] | TGI [7] [µM] | GI50 [8] [µM] | TGI [8] [µM] | GI50 [9] [µM] | TGI [9] [µM] | GI50 [10] [µM] | TGI [10] [µM] |
| --- | --- | --- | --- | --- | --- | --- | --- | --- | --- | --- | --- | --- | --- | --- | --- | --- | --- | --- | --- | --- |
| O=C(NCCN1CCOCC1)c1cc2c(Oc3ccc(NC(=O)C4(C(=O)Nc5ccc(F)cc5)CC4)cc3)ccnc2[nH]1 | 3.73 | 50.3 | 7.85 | > 54.8 | 12.5 | > 100 | 5.19 | > 100 | 10.6 | > 100 | 0.893 | 9.64 | 13.7 | > 100 | 5.14 | 19.5 | 0.47 | 15.5 | 1.59 | > 75.1 |
| OC[C@H]1C[C@](O)(c2ccccc2Cl)[C@@H](c2ccccc2Cl)O1 | 26 | 76.3 | 16.9 | 37 | 28.4 | > 100 | 26.4 | 86.6 | 27.1 | 74.3 | 20.9 | 79.9 | 32 | 86.1 | 19 | 42.6 | 27.1 | 94.6 | 25.9 | 74.2 |
| COc1cccc(/C=C\C(=O)c2ccccc2)c1 | 16.6 | 32.9 | 10.8 | 24.3 | 2.4 | 10.1 | 7.83 | 24.7 | 4.73 | 20.5 | 8.9 | 23 | 9.66 | 24.8 | 17.7 | 33.3 | 8.45 | 27.5 | 10.4 | 44.8 |
| CCc1ccc([OH2+])c(C(=O)[O-])c1.CCc1ccc([OH2+])c(C(=O)[O-])c1.CCc1ccc([OH2+])c(C(=O)[O-])c1.CCc1ccc([OH2+])c(C(=O)[O-])c1.[Cu+2].[Cu+2] | > 50.2 | > 100 | 78.6 | > 100 | > 88.2 | > 100 | 5.59 | > 100 | 70.1 | > 100 | 40.6 | > 89.3 | 24.9 | > 82.4 | > 100 | > 100 | 50.8 | > 100 | > 100 | > 100 |
| Cc1[nH]c2c(C)c3c([nH]c4ccc(Cl)cc43)c(C)c2c(=O)c1C | – | 24.2 | – | > 100 | – | 5.72 | – | 17.7 | – | > 100 | – | > 92.5 | – | 40.2 | – | > 100 | – | 36.2 | – | 18.9 |
| COC(=O)[C@]12CC[C@@H](C)[C@H](C)[C@@H]1C1=CC[C@@H]3[C@@]4(C)C[C@@H](OC(C)=O)[C@H](OC(C)=O)[C@@](C)(COC(C)=O)[C@@H]4[C@H](O)C[C@@]3(C)[C@]1(C)CC2 | 5.09 | > 100 | 1.4 | 81.4 | 0.43 | > 100 | 3.15 | > 100 | 3.55 | > 100 | 4.32 | > 100 | 0.93 | > 100 | 2.43 | 8.21 | 2.84 | > 100 | 2.25 | > 100 |
| COc1ccc2c(Cl)cc(NC(=S)Nc3ccccc3)nc2c1 | – | > 100 | – | > 100 | – | > 100 | – | 38.4 | – | > 100 | – | 52.1 | – | > 100 | – | > 100 | – | > 100 | – | 73.7 |
| O=C1c2ccccc2C(=O)c2c1ccc1c3ccccc3n(-c3ccccc3)c21 | – | 44.1 | – | 51.3 | – | 32.6 | – | 44.8 | – | 33.4 | – | 44.9 | – | 35.1 | – | 41.7 | – | 37.2 | – | 34 |
| Oc1ccccc1/C=N\NC(=S)Nc1ccc(F)cc1 | 2.76 | > 32.5 | 2.35 | > 89.9 | 0.529 | > 100 | 1.22 | > 63.1 | 1.97 | > 100 | 1.66 | 14.9 | 1.57 | > 24.3 | 2.68 | > 65.3 | 1.38 | – | 2.37 | > 100 |
| COC(=O)C(=O)C(C(=O)C(=O)Nc1cc(C)ccc1C)c1nc2ccccc2[nH]c1=O (configuration not stated) | – | > 100 | – | > 100 | – | > 100 | – | > 100 | – | > 100 | – | > 100 | – | > 100 | – | > 100 | – | > 100 | – | > 100 |
| COc1oc(C2C/C(=C/C(C)=C/C(C)=C/C(C)=C/c3ccc([N+](=O)[O-])cc3)CO2)c(C)c(=O)c1C (configuration not stated) | – | > 54.3 | – | 17.4 | – | > 56.6 | – | 32.5 | – | > 47.3 | – | > 57.5 | – | 30.9 | – | 66 | – | 34.7 | – | 31.4 |
| O=C(O)CCCCCNCc1cc2cc3c(cc2c2cc(OCc4ccccc4)ccc12)OCO3 | 4.37 | 21.9 | 6.68 | 24.1 | 2.03 | 5.88 | 1.61 | 3.21 | 2.37 | 5.47 | 2.96 | 8.81 | 3.17 | 12 | 3.38 | 10.9 | 1.84 | 3.61 | – | – |
| COc1cc(/C=N\Nc2ccccc2)ccc1OC(=O)c1ccccc1 | 10.2 | > 77.6 | 8.34 | 62.3 | 0.306 | 17.6 | 3.46 | > 100 | 39.4 | > 100 | 12.8 | 61.9 | 2.27 | 33.7 | 7.12 | > 100 | 1.92 | 10.7 | 15.8 | > 100 |
| N#Cc1ccc2c(-c3ccnc(NC4CC4)n3)c(-c3ccc(F)cc3)nn2c1 | > 25 | > 25 | > 25 | > 25 | > 25 | > 25 | > 25 | > 25 | > 25 | > 25 | > 17.2 | > 25 | 14.6 | > 25 | > 25 | > 25 | > 25 | > 25 | > 25 | > 25 |
